The text below walks through data of ChEMBL document CHEMBL1129834, “A boronated benzamide as melanoma-seeking agent” (Bioorg Med Chem Lett, 1997).

Data set [1] is described as follows: Compound was evaluated for the biodistribution of tumor-imaging agent in B16 melanoma bearing mice upon intraveneous administration at 2.6 gmol/mice after 1 hour. The format is ADME, organism-based. The note with it: mus sp., in vivo, iv.
Data set [2] is described as follows: Compound was evaluated for the biodistribution of tumor-imaging agent in B16 melanoma bearing mice muscle upon intraveneous administration at 2.6 gmol/mice after 1 hour. The format is ADME, organism-based, Muscle tissue. The conditions noted are these: mus sp., in vivo, iv.
Data set [3] can be described thus: Partition coefficient (logP). The format is physicochemical. The conditions noted are these: octanol/water.
Data set [4] in a line: Compound was evaluated for the biodistribution of tumor-imaging agent in B16 melanoma bearing mice uvea upon intraveneous administration at 2.6 gmol/mice after 24 hour. The format is ADME, organism-based, Uveal tract. The conditions noted are these: mus sp., in vivo, iv.
Data set [5] in a line: Compound was evaluated for the biodistribution of tumor-imaging agent in B16 melanoma bearing mice kidney upon intraveneous administration at 2.6 gmol/mice after 3 hour. The format is ADME, organism-based. The conditions noted are these: mus sp., in vivo, iv.
Data set [6] is described as follows: Compound was evaluated for the biodistribution of tumor-imaging agent in B16 melanoma bearing mice kidney upon intraveneous administration at 2.6 gmol/mice after 1 hour. The format is ADME, organism-based. The conditions noted are these: mus sp., in vivo, iv.
Data set [7] in a line: Compound was evaluated for the biodistribution of tumor-imaging agent in B16 melanoma bearing mice lungs upon intraveneous administration at 2.6 gmol/mice after 3 hour. The format is ADME, organism-based. The conditions noted are these: mus sp., in vivo, iv.
Data set [8] is described as follows: Compound was evaluated for the biodistribution of tumor-imaging agent in B16 melanoma bearing mice spleen upon intraveneous administration at 2.6 gmol/mice after 3 hour. The format is ADME, organism-based. The note with it: mus sp., in vivo, iv.
A short description of data set [9]: Acute toxicity of compound in OF1 mice. The format is organism-based. The conditions noted are these: OF1, mouse, in vivo.
Data set [10] is described as follows: Compound was evaluated for the biodistribution of tumor-imaging agent in B16 melanoma bearing mice liver upon intraveneous administration at 2.6 gmol/mice after 24 hour. The conditions noted are these: mus sp., in vivo, iv. The format is ADME, organism-based.
The nature of data set [11]: Compound was evaluated for the biodistribution of tumor-imaging agent in B16 melanoma bearing mice blood upon intraveneous administration at 2.6 gmol/mice after 3 hour. The format is ADME, organism-based. The conditions noted are these: mus sp., in vivo, iv.
Data set [12] is described as follows: Compound was evaluated for the biodistribution of tumor-imaging agent in B16 melanoma bearing mice liver upon intraveneous administration at 2.6 gmol/mice after 3 hour. The format is ADME, organism-based. The note with it: mus sp., in vivo, iv.
The nature of data set [13]: Compound was evaluated for the biodistribution of tumor-imaging agent in B16 melanoma bearing mice upon intraveneous administration at 2.6 gmol/mice after 24 hour. The format is ADME, organism-based. The note with it: mus sp., in vivo, iv.
Data set [14] is described as follows: Compound was evaluated for the biodistribution of tumor-imaging agent in B16 melanoma bearing mice muscle upon intraveneous administration at 2.6 gmol/mice after 3 hour. The conditions noted are these: mus sp., in vivo, iv. The format is ADME, organism-based, Muscle tissue.
Data set [15] is described as follows: Compound was evaluated for the biodistribution of tumor-imaging agent in B16 melanoma bearing mice liver upon intraveneous administration at 2.6 gmol/mice after 1 hour. The format is ADME, organism-based. The conditions noted are these: mus sp., in vivo, iv.
The nature of data set [16]: Compound was evaluated for the biodistribution of tumor-imaging agent in B16 melanoma bearing mice spleen upon intraveneous administration at 2.6 gmol/mice after 1 hour. The format is ADME, organism-based. The note with it: mus sp., in vivo, iv.
The nature of data set [17]: Compound was evaluated for the biodistribution of tumor-imaging agent in B16 melanoma bearing mice upon intraveneous administration at 2.6 gmol/mice after 3 hour. The format is ADME, organism-based. The note with it: mus sp., in vivo, iv.
The nature of data set [18]: Compound was evaluated for the biodistribution of tumor-imaging agent in B16 melanoma bearing mice brain upon intraveneous administration at 2.6 gmol/mice after 3 hour. The format is ADME, organism-based. The conditions noted are these: mus sp., in vivo, iv.
The nature of data set [19]: Compound was evaluated for the biodistribution of tumor-imaging agent in B16 melanoma bearing mice kidney upon intraveneous administration at 2.6 gmol/mice after 24 hour. The note with it: mus sp., in vivo, iv. The format is ADME, organism-based.
A short description of data set [20]: Compound was evaluated for the biodistribution of tumor-imaging agent in B16 melanoma bearing mice lungs upon intraveneous administration at 2.6 gmol/mice after 1 hour. The format is ADME, organism-based. The note with it: mus sp., in vivo, iv.
Data set [21] in a line: Compound was evaluated for the biodistribution of tumor-imaging agent in B16 melanoma bearing mice brain upon intraveneous administration at 2.6 gmol/mice after 1 hour. The format is ADME, organism-based. The conditions noted are these: mus sp., in vivo, iv.
The nature of data set [22]: Compound was evaluated for the biodistribution of tumor-imaging agent in B16 melanoma bearing mice blood upon intraveneous administration at 2.6 gmol/mice after 1 hour. The format is ADME, organism-based. The note with it: mus sp., in vivo, iv.
Data set [23] in a line: Compound was evaluated for the biodistribution of tumor-imaging agent in B16 melanoma bearing mice uvea upon intraveneous administration at 2.6 gmol/mice after 3 hour. The format is ADME, organism-based, Uveal tract. The conditions noted are these: mus sp., in vivo, iv.
Data set [24] is described as follows: Compound was evaluated for the biodistribution of tumor-imaging agent in B16 melanoma bearing mice muscle upon intraveneous administration at 2.6 gmol/mice after 24 hour. The format is ADME, organism-based, Muscle tissue. The conditions noted are these: mus sp., in vivo, iv.

Usually logP stands for a log measure of how a compound divides between an organic and an aqueous phase. By LD50 is commonly meant the dose at which mortality reaches 50%. A high value points to a less toxic substance. On to `CCN(CC)CCNC(=O)c1ccc(B2OCCCO2)cc1`, for which the Injected dose/g was determined as 3.26% in [1]; 2.95% in data set [2]; 0.84% in data set [4]; 3.38% in data set [5]; 4.88% in data set [6]; 1.24% in data set [7]. Also, the Injected dose/g in data set [8] is 1.53%; in data set [10] it was 0.22%; in data set [11] it was 0.97%; in [12] it was 4.76%; in data set [13], 0.52%; in data set [14], 1.96%. For the same molecule, the Injected dose/g worked out at 5.11% in [15]; 2.61% in [16]; 2.89% in [17]; 0.18% in data set [18]; 0.13% in [19]; 1.91% in data set [20]. Besides, the Injected dose/g turned out to be 0.19% in data set [21], 2.53% in data set [22], 2.78% in data set [23] and 0.04% in data set [24]. This molecule also displayed a logP in data set [3] of -1. The molecule also came in with an LD50 in data set [9] of 1860 µmol/kg.
